The values that follow come from US9988371B2, “Benzimidazole analogues and related methods” (The Arizona Board of Regents, on Behalf of the University …, priority 2014, dated 2018).

Assay [1] relates to Ba/F3 cells transfected by RET/PTC3 (NCOA4-RET). Nature of the assay: IL-3-independent proliferation of Ba/F3 RET/PTC3 cells. Type of assay: cell-based, murine. The conditions noted are these: Mus musculus, BaF3. The protocol:
FIG. 6: Activity of Pz-1 on NCOA4-RET oncogene-driven IL-3-independent proliferation of murine Ba/F3 cells. […] Ba/F3 and Ba/F3 NCOA4-RET cells were incubated with vehicle (NT) or the indicated concentration of Pz-1 in complete medium and counted at different time points. Data are the mean±SD of one experiment performed in triplicate. Murine interleukin-3 (IL-3) dependent pro-B Ba/F3 cells were from ATCC. Ba/F3 cells stably expressing NCOA4-RET (RET/PTC3) protein were generated by transfecting long isoform (RET-51) of NCOA4-RET by electroporation. Parental and Ba/F3-NCOA4-RET cells were cultured in RPMI 1640 with 10% FBS; parental cells required also 10 ng/ml IL-3. IC50 doses (with Confidence Intervals) are indicated.
Nthy-ory-3-1 and TTcells were seeded in 60-mm dishes. Cells were kept in 2% (Nthy-ori-3-1) or 10% (TT) fetal calf serum. One day after plating, different concentrations of Pz-1 or vehicle were added to the medium and changed every 2-3 days. Cells were counted every 2-3 days. […] Parental and RET/PTC-expressing Ba/F3 were kept in 10% fetal calf serum in 6-multi wells and counted every day for 4 consecutive days, changing media every 2 days. […] IC50 doses were calculated through a curve fitting analysis from the last day of growth curves using the PRISM software program (Graphpad Software Inc). […]

Assay [2] concerns HRAS(G12V) transformed NIH3T3 fibroblasts. Briefly: NIH3T3 HRAS(G12V) tumors in nude mice. Type of assay: in vivo, BALB/c nu/nu mice. The conditions noted are these: 1.0, 3.0 or 10 mg/kg daily, oral gavage. The text has this:
FIG. 8: Anti-tumorigenic activity of Pz-1 in nude mice implanted with RET/C634Y or HRAS(G12V) transformed NIH3T3 fibroblasts. […] Average tumor volume (±SD: standard deviations) is reported. NIH3T3 RET/C634Y (200,000 cells) or NIH3T3 HRAS/G12V (50,000 cells) were inoculated subcutaneously into dorsal portion (both sides) of 6-week-old female BALB/c nu/nu mice (n. 31 mice/cell line) (Jackson Laboratories, Bar Harbor, Me.). After 4 days, before tumors had appeared, animals were randomly assigned to receive Pz-1 (1.0, 3.0 or 10 mg/kg daily) (23 mice/cell line: 8 mice/group for 1.0 and 3.0 mg/kg daily doses and 7 mice for 10 dose mg/kg daily) or vehicle control (8 mice) by oral gavage. Tumor diameters were measured with calipers every 1-2 days. Tumor volumes (V) were calculated by the rotational ellipsoid formula and reported as average volumes±standard deviations. […]
TT cells (7.5×10^6/mouse) were inoculated subcutaneously into dorsal portions (both sides) of 39 SCID mice (Jackson Laboratories, Bar Harbor, Me.). […] Tumor diameters were measured with callipers every week. Tumor volumes (V) were calculated by the rotational ellipsoid formula: V=A×B^2/2 (A=axial diameter; B=rotational diameter) and reported as average volumes±standard deviations. […] Anti-tumorigenic activity of Pz-1 was also assessed in nude mice implanted with RET/C634Y or HRAS(G12V) transformed NIH3T3 fibroblasts. […]

In turn, `Cn1cc(-c2ccc3c(c2)ncn3-c2ccc(CC(=O)Nc3cc(C(C)(C)C)on3)cc2)cn1` [Pz-1, N-(5-(tert-butyl)isoxazol-3-yl)-2-(4-(5-(1-methyl-1H-pyrazol-4-yl)-1H-benzo[d]imidazol-1-yl)phenyl)acetamide] displayed an IC50 in assay [1] of 0.34 nM. For the same compound, the “formation of tumors driven by the HRAS oncogene” value in assay [2] is reported as “only reduced, but did not abrogate”.
